Patent US20200253979A1, “THERAPEUTIC METHODS RELATING TO HSP90 INHIBITORS” (AI Therapeutics, Inc., priority 2017, published 2020)
Like-named read-outs stand apart in the source and are kept apart here.

Legend:
[1] = test system: PD-1+ Jurkat reporter cells with THP-1 AML cells; assay: Jurkat NFAT-luciferase reporter T cell activation with THP-1 cells; assay type: cell-based; details: THP-1 treated 24 hr with IFNγ 50 ng/ml; PD-L1 blocking antibody added
From the text: The addition of antibodies that block the PD-1/PD-L1 pathway stimulate an increased T cell response in vitro, in pre-clinical animal models, and in cancer patients. This can lead to tumor regressions or tumor clearance in patients. To examine MPC-0767 effects on PD-L1 and T cell activation, we used a model system in which PD-1+ Jurkat T cells express luciferase under the control of the NFAT promoter (Promega, hereafter referred to Jurkat reporter cells). When T cells are stimulated through the T cell receptor (TCR), activation of the NFAT pathway drives expression of luciferase.
We next determined whether MPC-0767 reduction of PD-L1 could increase T cell stimulation similar to anti-PD-L1 blocking antibodies. THP-1 cells were treated overnight with IFNγ in the presence or absence of MPC-0767 (1 μM or 2 uM). THP-1 cells were washed and a portion saved for flow cytometry analysis of PD-L1 expression. The remaining cells were incubated with Jurkat reporter cells and anti-CD3 (10 ng/ml) for 6 hours.

MOLM-13 cells (FLT3-ITD) = assay: CellTiter-Glo cell viability (combination); assay type: cell-based, human; details: MOLM-13, 72 hours, average CI
Description: (§1) Three cell lines which harbor FLT3-ITD were used for the drug combination studies (MV-4-11, MOLM-13, and MOLM-14).
(§2) Cells were treated with the drugs (single agent or combination) for 72 hours. Drug combination activity was determined by first measuring cell viability with CellTiter-Glo®, followed by the calculation of the EC50 corresponding to single agent activity, using the R DRC package (R Core Team, 2017). The combination index (CI) values were computed using the Chou-Talalay method (Chou T, Cancer Research., 2010 70(2): 440-6.), based on the viability of each drug alone and in combination, across all concentrations tested. In brief, CI was defined as: […]

MV-4-11 cells (FLT3-ITD) = assay: CellTiter-Glo cell viability (single agent and combination); assay type: cell-based; details: MV-4-11, 72 hours, average CI
Description: as §1, §2
(§3) Loss of function mutations of KDM6A are observed in FLT3-ITD AML (Garg et al., 2015 Blood 126 (22):2491-501). […] To therapeutically exploit this finding, we hypothesized that inhibiting EZH2, the histone H3K27 methyltransferase that functionally opposes KDM6A, would enhance sensitivity to MPC-0767. To test this hypothesis, a FLT3-ITD cell line (MV-4-11) was used and treated with either of the two clinical stage EZH2 inhibitors, EPZ-6438 and CPI-1205, at 8 different concentrations for 4 days. Following this time, cells were counted, reseeded and treated with 8 concentrations of EZH2 inhibitor alone, 8 concentrations of MPC-0767 alone, or the combination of the two (64 total combinations).

MOLM-14 cells (FLT3-ITD) = assay: as above; assay type: cell-based; details: for combination index (CI) of AML drug in combination with MPC-0767: MOLM-14, 72 hours, average CI (* n=1); for IC50: Homo sapiens, MOLM-14, 72 h, 72 hours, read-out: EC50 (cell viability)
Description: HS-5 is a human marrow stromal cell line that secretes various growth factors sufficient to support hematopoietic progenitor growth (Roecklein et al., Blood, 1995) which thus mimics stromal conditions.
as §1, §2, §3

[2] = test system: MOLM-13-R-PKC412 (midostaurin-resistant) cells; assay: CellTiter-Glo cell viability; assay type: cell-based, human
From the text: (§4) In the clinic, tyrosine kinase inhibitors that target FLT3 initially show positive responses, but patients inevitably relapse due to the development of drug-resistance through various mechanisms, as discussed above.

[3] = test system: BaF3 cells harboring FLT3-ITD F691L; assay: CellTiter-Glo cell viability; assay type: cell-based, murine
Description: (§5) EC50 values were calculated using equation 1 (as described above).

[4] = test system: BaF3 cells harboring FLT3-ITD; assay: CellTiter-Glo cell viability; assay type: cell-based, murine; details: Mus musculus, 72 hours
Description: After this time cell viability was determined using CTG and EC50 values determined.
as §5
BaF3 cells require the supplementation of IL-3 to activate the IL-3 receptor for growth. However, in BaF3 cells transfected with FLT3-ITD, cells no longer require IL3 as survival is solely driven by oncogenic FLT3 signaling.

MOLM-13-LUC cells = assay: CellTiter-Glo cell viability; assay type: cell-based; details: Homo sapiens, 72 hours
From the text: as §4

[5] = cited from earlier work
[6] = test system: phospho-S6 in MOLM-13 cells; assay: Phospho-S6 by flow cytometry; assay type: cell-based, human; details: MOLM-13; MPC-0767 800 nM, ATO 625 nM or combination; 24 hours
Description: (§6) To determine whether MPC-0767 can promote the degradation of FLT3-ITD and abolish downstream signaling, MV-4-11 and MOLM-13 cells were treated with vehicle or MPC-0767 (1 μM) for 24 hours. Cells were harvested for flow cytometry to assess cell surface FLT3 protein abundance. In addition, the measurement of a key phosphorylation site of S6 (phospho-S6) was used as a marker for oncogenic FLT3-ITD signaling (Zimmerman et al., Blood. 2013 122(22): 3607-3615). Indeed, in both MV-4-11 and MOLM-13 cells treated with MPC-0767 there was a >65% reduction in cell surface FLT3 (FIGS. 10A and 10B, respectively) and >70% reduction in phospho-S6 (FIGS. 10C and 10D, respectively).
(§7) We next explored whether the synergistic activity of MPC-0767 and ATO was due to a more complete abrogation of FLT3-ITD oncogenic signaling. […] After this time cells were harvested for the assessment of cell surface FLT3 expression by flow cytometry. To additionally measure the effects of abrogating FLT3, we assessed phospho-ERK (pERK) and phospho-S6 (pS6), as these are two known downstream effectors.

[7] = test system: cell surface FLT3 in MOLM-13 cells; assay: Cell surface FLT3 by flow cytometry; assay type: cell-based, human; details: MOLM-13; MPC-0767 800 nM, ATO 625 nM or combination; 24 hours
Description: as §6, §7

[8] = test system: phospho-ERK (pERK) in MOLM-13 cells; assay: Phospho-ERK level; assay type: cell-based, human; details: MPC-0767 800 nM, ATO 625 nM or combination, 24 hours
From the text: as §7

[9] = test system: MOLM-13 FLT3-ITD AML cell line; assay: Systemic survival xenograft study, MPC-0767 with 5′azacitidine; details: single agents: MPC-0767 75 mg/kg p.o.; 5′azacitidine 2 mg/kg QD×4 i.p.; vs vehicle
Description: A systemic survival xenograft study was performed using the MOLM-13 FLT3-ITD harboring AML cell line.
Before tumor cell inoculation, NOD/SCID mice were pre-treated for 2 days with a daily intraperitoneal injection of 100 mg/kg cyclophosphamide to facilitate engraftment of the human MOLM-13 tumor cells. After the injection of cyclophosphamide, the animals were allowed to recover for 24 hours prior to inoculation with human MOLM-13 tumor cells. Each mouse was then inoculated with 1×10^7 MOLM-13 cells in 100 μL PBS via intravenous tail vein injection. Mice were next randomized into 4 groups of 6 mice each. […] Viability and body weight loss were monitored daily.

[10] = MOLM-14, stromal media (HS-5 conditioned)

atezolizulmab: PD-L1 blocking antibody
T cell activation (luciferase) [1]: restores T cell activation to untreated levels

CC1(C)CCC(CN2CCN(c3ccc(C(=O)NS(=O)(=O)c4ccc(NCC5CCOCC5)c([N+](=O)[O-])c4)c(Oc4cnc5[nH]ccc5c4)c3)CC2)=C(c2ccc(Cl)cc2)C1 [Venetoclax, venetoclax]
combination index (CI) of AML drug in combination with MPC-0767 (MOLM-13 cells (FLT3-ITD)): CI = 0.3
combination index (CI) of AML drug in combination with MPC-0767 (MOLM-13 cells (FLT3-ITD); listed as venetoclax): 0.3
combination index (CI) of AML drug in combination with MPC-0767 (MV-4-11 cells (FLT3-ITD)): CI = 0.7
combination index (CI) of AML drug in combination with MPC-0767 (MV-4-11 cells (FLT3-ITD); listed as venetoclax): 0.7
combination index (CI) of AML drug in combination with MPC-0767 (MOLM-14 cells (FLT3-ITD)): CI = 0.6

CC1(COc2ccc3c(c2)ncn3-c2ccc3cccc(N4CCC(N)CC4)c3n2)COC1 [crenolanib]
EC50 ([2]; Homo sapiens, MOLM-13-R-PKC412, 72 hours): 25 nM
fold difference in EC50, midostaurin-resistant vs control cells ([2]; MOLM-13-R-PKC412 vs MOLM-13-LUC): approximately 3 fold
fold resistance, FLT3-ITD-F691L vs FLT3-ITD ([3]; BaF3, 72 hours): approximately 23 fold
EC50 ([3]; Mus musculus, BaF3 FLT3-ITD-F691L, 72 hours): 90 nM
EC50 [4]: 4 nM
EC50 (MOLM-13-LUC cells): 9 nM
combination index (CI) of AML drug in combination with MPC-0767 (MOLM-13 cells (FLT3-ITD)): CI = 0.9
combination index (CI) of AML drug in combination with MPC-0767 (MV-4-11 cells (FLT3-ITD)): CI = 0.7
IC50 (MOLM-14 cells (FLT3-ITD); MOLM-14, non-stromal media): 3 nM
IC50 (MOLM-14 cells (FLT3-ITD); [10]): > 100 nM

C[C@H](O)C(=O)N1CCC(CCn2c(Sc3cc4c(cc3Br)OCO4)nc3c(N)ncnc32)CC1 [MPC-3100, (2S)-1-[4-(2-{6-Amino-8-[(6-bromo-1,3-benzodioxol-5-yl)sulfanyl]-9H-purin-9-yl}ethyl)piperidin-1-yl]-2-hydroxypropan-1-one, reference compound]
aqueous solubility [5]: poor solubility

Nc1ccn([C@@H]2O[C@H](CO)[C@@H](O)[C@@H]2O)c(=O)n1 [Cytarabine, cytarabine]
combination index (CI) of AML drug in combination with MPC-0767 (MV-4-11 cells (FLT3-ITD)): CI = 0.8
combination index (CI) of AML drug in combination with MPC-0767 (MOLM-14 cells (FLT3-ITD)): CI = 0.9*

arsenic trioxide [ATO, reference compound]
pS6 level [6]: reduced
FLT3 level (cell surface) [7]: reduced
pERK level [8]: mildly reduced

CNC(=O)c1cc(Oc2ccc(NC(=O)Nc3ccc(Cl)c(C(F)(F)F)c3)cc2)ccn1 [Sorafenib, sorafenib]
combination index (CI) of AML drug in combination with MPC-0767 (MV-4-11 cells (FLT3-ITD)): CI = 0.8

CCc1nc(C(N)=O)c(Nc2ccc(N3CCC(N4CCN(C)CC4)CC3)c(OC)c2)nc1NC1CCOCC1 [gilteritinib]
combination index (CI) of AML drug in combination with MPC-0767 (MOLM-13 cells (FLT3-ITD)): CI = 0.9
IC50 (MOLM-14 cells (FLT3-ITD); MOLM-14, non-stromal media): 6 nM
IC50 (MOLM-14 cells (FLT3-ITD); [10]): > 100 nM

Nc1ncn([C@@H]2O[C@H](CO)[C@@H](O)[C@H]2O)c(=O)n1 [5′azacitidine, reference compound]
increase in median survival [9]: 8 days
